# Laboratory results taken from ChEMBL document CHEMBL1201862, “PubChem BioAssay data set” (2004).
#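 Briefly, cells in 96-well plates were exposed to five compound concentrations for 48 h, and endpoints were estimated by linear interpolation. Here, GI50 denotes the concentration required for 50% inhibition of growth.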 Active and inactive are the calls of the source. Rule as the data show it: active = GI50 up to about 1.1 µM and inactive = higher.
# Tests used:
# Test in all cases: growth of human tumour cells (NCI), 48 h
# 786-0 = test system: 786-0
# A549 = test system: A549
# CAKI-1 = test system: CAKI-1
# HOP-92 = test system: HOP-92
# HT-29 = test system: HT-29
# M14 = test system: M14
# MDA-MB-231 = test system: MDA-MB-231
# NCI-H226 = test system: NCI-H226
# NCI-H460 = test system: NCI-H460
# OVCAR-5 = test system: OVCAR-5
# PC-3 = test system: PC-3
# RPMI-8226 = test system: RPMI-8226
# SF-268 = test system: SF-268
# SK-MEL-5 = test system: SK-MEL-5
# SK-OV-3 = test system: SK-OV-3
# SN12C = test system: SN12C
# T47D = test system: T47D
# UACC-257 = test system: UACC-257
# UACC-62 = test system: UACC-62
# HCC 2998 = test system: HCC 2998
Structure (SMILES),GI50 (786-0),GI50 (A549),GI50 (CAKI-1),GI50 (HOP-92),GI50 (HT-29),GI50 (M14),GI50 (MDA-MB-231),GI50 (NCI-H226),GI50 (NCI-H460),GI50 (OVCAR-5),GI50 (PC-3),GI50 (RPMI-8226),GI50 (SF-268),GI50 (SK-MEL-5),GI50 (SK-OV-3),GI50 (SN12C),GI50 (T47D),GI50 (UACC-257),GI50 (UACC-62),GI50 (HCC 2998)
CC(C)CNC(=O)O,> 100 µM (inactive),> 100 µM (inactive),> 100 µM (inactive),> 100 µM (inactive),> 100 µM (inactive),> 100 µM (inactive),> 100 µM (inactive),> 100 µM (inactive),> 100 µM (inactive),> 100 µM (inactive),> 100 µM (inactive),> 100 µM (inactive),> 100 µM (inactive),> 100 µM (inactive),> 100 µM (inactive),> 100 µM (inactive),> 100 µM (inactive),> 100 µM (inactive),> 100 µM (inactive),–
CCC(=O)Nc1ncnc2ncn(C(=O)CC)c12,> 100 µM (inactive),> 100 µM (inactive),> 100 µM (inactive),> 100 µM (inactive),> 100 µM (inactive),> 100 µM (inactive),> 100 µM (inactive),–,> 100 µM (inactive),> 100 µM (inactive),> 100 µM (inactive),> 100 µM (inactive),> 100 µM (inactive),–,> 100 µM (inactive),> 100 µM (inactive),> 100 µM (inactive),> 100 µM (inactive),> 100 µM (inactive),> 100 µM (inactive)
COCCCN(Cc1cc(OC)c(OC)c(OC)c1)C(=S)Nc1cccc(Cl)c1,26.5 µM (inactive),29 µM (inactive),21.5 µM (inactive),20.2 µM (inactive),18.7 µM (inactive),23.7 µM (inactive),26 µM (inactive),–,30.1 µM (inactive),20.8 µM (inactive),25.1 µM (inactive),14.9 µM (inactive),19.9 µM (inactive),13.9 µM (inactive),41 µM (inactive),24.4 µM (inactive),12.2 µM (inactive),19.6 µM (inactive),15.4 µM (inactive),39.1 µM (inactive)
CC(C)(C)c1cc(C(C)(C)C)c2sc(=O)oc2c1O,16.4 µM (inactive),13.2 µM (inactive),12.4 µM (inactive),16.8 µM (inactive),17.4 µM (inactive),17.5 µM (inactive),18.4 µM (inactive),20.2 µM (inactive),5.61 µM (inactive),18.5 µM (inactive),14.7 µM (inactive),21.3 µM (inactive),13.6 µM (inactive),14.4 µM (inactive),19.5 µM (inactive),12.4 µM (inactive),6.14 µM (inactive),5.71 µM (inactive),–,–
O=C1CCCSCCCC(=O)CCCSCCC1,> 100 µM (inactive),> 100 µM (inactive),–,> 100 µM (inactive),> 100 µM (inactive),> 100 µM (inactive),> 100 µM (inactive),–,> 100 µM (inactive),> 100 µM (inactive),> 100 µM (inactive),–,> 100 µM (inactive),> 100 µM (inactive),> 100 µM (inactive),> 100 µM (inactive),> 100 µM (inactive),> 100 µM (inactive),> 100 µM (inactive),> 100 µM (inactive)
COP(=O)(OC)[C@@](O)(c1ccccc1)[C@@H](O)[C@@H](O)c1ccccc1,64.6 µM (inactive),> 100 µM (inactive),> 100 µM (inactive),> 100 µM (inactive),> 100 µM (inactive),> 100 µM (inactive),> 100 µM (inactive),> 100 µM (inactive),> 100 µM (inactive),> 100 µM (inactive),> 100 µM (inactive),–,> 100 µM (inactive),> 100 µM (inactive),> 100 µM (inactive),> 100 µM (inactive),> 100 µM (inactive),> 100 µM (inactive),> 100 µM (inactive),–
NC(C(F)(F)F)(C(F)(F)F)P(=O)(Cc1ccccc1)Cc1ccccc1,66.1 µM (inactive),> 100 µM (inactive),> 100 µM (inactive),–,> 100 µM (inactive),> 100 µM (inactive),> 100 µM (inactive),–,> 100 µM (inactive),> 100 µM (inactive),> 100 µM (inactive),> 100 µM (inactive),73.8 µM (inactive),> 100 µM (inactive),> 100 µM (inactive),> 100 µM (inactive),> 100 µM (inactive),> 100 µM (inactive),> 100 µM (inactive),> 100 µM (inactive)
COc1ccc2c(c1)CCC1=CC3(CCC12C)SCCS3 (centres undefined),5.64 µM (inactive),8.05 µM (inactive),7.52 µM (inactive),4.97 µM (inactive),3.68 µM (inactive),4.46 µM (inactive),4.08 µM (inactive),–,–,–,8.26 µM (inactive),3.5 µM (inactive),3.13 µM (inactive),6.93 µM (inactive),3.27 µM (inactive),9.25 µM (inactive),6.03 µM (inactive),> 10 µM (inactive),4.14 µM (inactive),7.8 µM (inactive)
Nc1ccn(C2OC(C(OC3OC(CO)C(O)C(N)C3O)C(O)C(O)C(O)C(O)CO)C(N)C(O)C2O)c(=O)n1 (centres undefined),35.5 µM (inactive),> 100 µM (inactive),61 µM (inactive),3.78 µM (inactive),> 100 µM (inactive),44 µM (inactive),6.44 µM (inactive),–,22 µM (inactive),15 µM (inactive),50.7 µM (inactive),> 100 µM (inactive),11 µM (inactive),> 100 µM (inactive),–,> 100 µM (inactive),> 100 µM (inactive),> 100 µM (inactive),71 µM (inactive),5.26 µM (inactive)
O=C(/N=N/c1ccc(Cl)cc1Cl)NNc1ccc(Cl)cc1Cl,15.3 µM (inactive),18.2 µM (inactive),19.6 µM (inactive),–,37.2 µM (inactive),> 10 µM (inactive),20.7 µM (inactive),19 µM (inactive),16.4 µM (inactive),19.3 µM (inactive),12.2 µM (inactive),19 µM (inactive),30.1 µM (inactive),14.9 µM (inactive),–,16.4 µM (inactive),21.7 µM (inactive),19.6 µM (inactive),13.9 µM (inactive),11.4 µM (inactive)
Oc1cccc(-c2nc3cc(F)ccc3s2)c1,19.5 µM (inactive),23.6 µM (inactive),15.1 µM (inactive),–,16.6 µM (inactive),18.1 µM (inactive),15.9 µM (inactive),9.46 µM (inactive),18.6 µM (inactive),21.4 µM (inactive),24.2 µM (inactive),20.3 µM (inactive),23.9 µM (inactive),10.7 µM (inactive),16.7 µM (inactive),23.4 µM (inactive),0.225 µM (active),13.9 µM (inactive),14.5 µM (inactive),9.02 µM (inactive)
